Biological target: T1, human DGAT1 (Homo sapiens, UniProt O75907)
T1 construct: made in house; host or cells: Sf9 insect cells (recombinant baculovirus); membrane fraction used
T1 sequence (O75907 1-488): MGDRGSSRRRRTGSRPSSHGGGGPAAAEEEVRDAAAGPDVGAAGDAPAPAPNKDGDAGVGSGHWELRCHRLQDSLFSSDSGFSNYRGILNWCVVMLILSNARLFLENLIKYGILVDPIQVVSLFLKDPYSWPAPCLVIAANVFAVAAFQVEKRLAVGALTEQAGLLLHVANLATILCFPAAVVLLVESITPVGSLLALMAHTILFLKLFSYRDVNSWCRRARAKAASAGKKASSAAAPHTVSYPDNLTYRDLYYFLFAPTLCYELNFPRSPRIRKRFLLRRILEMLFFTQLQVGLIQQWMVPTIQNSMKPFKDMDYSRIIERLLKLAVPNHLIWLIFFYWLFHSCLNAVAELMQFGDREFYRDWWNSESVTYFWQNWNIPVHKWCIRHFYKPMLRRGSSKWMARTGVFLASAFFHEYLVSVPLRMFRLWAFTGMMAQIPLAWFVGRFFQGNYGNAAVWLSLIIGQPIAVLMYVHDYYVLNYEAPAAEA
Experiment: Human Enzyme Assay (DGAT1 inhibition)
Format: biochemical
Conditions: human DGAT1 expressed in insect cell (sf9) membranes; 14C oleoyl coenzyme A, 30 minutes at room temperature
Method: The in vitro assay to identify DGAT1 inhibitors uses human DGAT1 expressed in insect cell membranes as the enzyme source (Proc. Natl. Acad. Sci. 1998, 95, 13018-13023). Briefly, sf9 cells were infected with recombinant baculovirus containing human DGAT1 coding sequences and harvested after 48 h. Cells were lysed by sonication and membranes isolated by centrifuging at 28000 rpm for 1 h at 4° C. on a 41% sucrose gradient. The membrane fraction at the interphase was collected, washed, and stored in liquid nitrogen.
DGAT1 activity was assayed by a modification of the method described by Coleman (Methods in Enzymology 1992, 209, 98-102). Compound at 1-10 μM was incubated with 0.4 μg membrane protein, 5 mM MgCl2, and 100 μM 1,2 dioleoyl-sn-glycerol in a total assay volume of 200 μl in plastic tubes. The reaction was started by adding ^14C oleoyl coenzyme A (30 μM final concentration) and incubated at room temperature for 30 minutes. The reaction was stopped by adding 1.5 mL 2-propanol:heptane:water (80:20:2). Radioactive triolein product was separated into the organic phase by adding 1 mL heptane and 0.5 mL 0.1 M carbonate buffer pH 9.5. DGAT1 activity was quantified by counting aliquots of the upper heptane layer by liquid scintillography.

- IC50: 0.29 µM
Compound: O=C(Nc1ccc(S(=O)(=O)C2CCC(C(=O)O)CC2)cc1)c1nnc(Nc2cc(F)c(F)c(F)c2)o1 (mixture of isomers) [Example 1, 4-[4-[[5-[(3,4,5-Trifluorophenyl)amino]1,3,4-oxadiazole-2-carbonyl]amino]phenyl]sulfonylcyclohexane-1-carboxylic acid]

From patent US20100173958A1, “COMPOUNDS FOR THE INHIBITION OF DGAT1 ACTIVITY” (priority 2006, published 2010)
